Measured values published in US20230002375A1, “HYDROPYRAZINO[1,2-B]ISOQUINOLINE COMPOUNDS FOR THE TREATMENT OF AUTOIMMUNE DISEASE” (Hoffmann-La Roche Inc., priority 2019, published 2023).

Target: T1, hERG K+ channel (Homo sapiens, UniProt Q12809)
T1 construct: expressed in transfected cells; host or cells: CHO (Chinese hamster ovary) cells, CHOhERG
Experiment: hERG channel inhibition assay (patch-clamp, CHOhERG cells)
Format: cell-based
Details: whole-cell patch-clamp; for IC20: human, CHO cells stably expressing hERG
Protocol: hERG Channel Inhibition Assay
The hERG K^+ channels were cloned in humans and stably expressed in a CHO (Chinese hamster ovary) cell line. CHOhERG cells were used for patch-clamp (voltage-clamp, whole-cell) experiments. Cells were stimulated by a voltage pattern to activate hERG channels and conduct IKhERG Currents (rapid delayed outward rectifier potassium current of the hERG channel). After the cells were stabilized for a few minutes, the amplitude and kinetics of IKhERG were recorded at a stimulation frequency of 0.1 Hz (6 bpm). Thereafter, the test compound was added to the preparation at increasing concentrations. For each concentration, an attempt was made to reach a steady-state effect, usually, this was achieved within 3-10 min at which time the next highest concentration was applied. The amplitude and kinetics of IKhERG are recorded in each concentration of the drug which were compared to the control values (taken as 100%). (references: Redfern W S, Carlsson L, Davis A S, Lynch W G, MacKenzie I, Palethorpe S, Siegl P K, Strang I, Sullivan A T, Wallis R, Camm A J, Hammond T G. 2003; Relationships between preclinical cardiac electrophysiology, clinical QT interval prolongation and torsade de pointes for a broad range of drugs: evidence for a provisional safety margin in drug development. Cardiovasc. Res. 58:32-45, Sanguinetti M C, Tristani-Firouzi M. 2006; hERG potassium channels and cardiac arrhythmia. Nature 440:463-469, Webster R, Leishman D, Walker D. 2002; Towards a drug concentration effect relationship for QT prolongation and torsades de pointes. Curr. Opin. Drug Discov. Devel. 5:116-26).

T1 sequence (Q12809 whole entry): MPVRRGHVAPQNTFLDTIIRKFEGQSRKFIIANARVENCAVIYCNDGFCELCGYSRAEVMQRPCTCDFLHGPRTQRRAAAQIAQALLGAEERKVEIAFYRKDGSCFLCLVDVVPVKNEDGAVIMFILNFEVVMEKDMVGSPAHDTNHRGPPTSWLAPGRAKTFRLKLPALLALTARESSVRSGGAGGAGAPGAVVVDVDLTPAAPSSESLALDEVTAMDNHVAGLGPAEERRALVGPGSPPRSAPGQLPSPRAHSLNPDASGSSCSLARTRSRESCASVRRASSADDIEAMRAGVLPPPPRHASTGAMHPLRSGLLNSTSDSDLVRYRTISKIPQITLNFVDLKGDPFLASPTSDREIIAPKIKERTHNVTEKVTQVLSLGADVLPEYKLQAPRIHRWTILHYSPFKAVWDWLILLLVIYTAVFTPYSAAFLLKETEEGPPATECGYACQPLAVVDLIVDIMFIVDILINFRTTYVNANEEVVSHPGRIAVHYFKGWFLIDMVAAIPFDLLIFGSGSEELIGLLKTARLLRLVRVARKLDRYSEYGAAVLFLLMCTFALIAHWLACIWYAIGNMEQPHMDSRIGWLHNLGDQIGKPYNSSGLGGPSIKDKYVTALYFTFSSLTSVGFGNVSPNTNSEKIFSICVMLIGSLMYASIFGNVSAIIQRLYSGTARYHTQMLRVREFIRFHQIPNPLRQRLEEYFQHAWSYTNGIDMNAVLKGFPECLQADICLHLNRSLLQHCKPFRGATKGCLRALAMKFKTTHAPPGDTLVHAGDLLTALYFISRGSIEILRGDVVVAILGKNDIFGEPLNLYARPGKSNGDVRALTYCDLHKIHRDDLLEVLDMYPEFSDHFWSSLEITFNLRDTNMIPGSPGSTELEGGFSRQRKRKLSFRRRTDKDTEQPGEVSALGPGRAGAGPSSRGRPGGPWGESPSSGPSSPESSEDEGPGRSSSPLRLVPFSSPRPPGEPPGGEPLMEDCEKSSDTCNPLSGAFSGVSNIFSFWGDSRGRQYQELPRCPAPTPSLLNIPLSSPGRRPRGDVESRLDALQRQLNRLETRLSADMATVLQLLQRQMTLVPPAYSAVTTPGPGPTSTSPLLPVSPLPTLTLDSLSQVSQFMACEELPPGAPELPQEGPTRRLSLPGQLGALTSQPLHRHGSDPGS

Structure (SMILES)	IC20 [µM]	IC50 [µM]
C[C@@H]1CN(c2ccc(C#N)c3ncccc23)C[C@@H]2Cc3cc(OC[C@@H]4CCN4)ccc3CN21 [Example 12, 5-[(4R,11aS)-9-[[(2S)-azetidin-2-yl]methoxy]-4-methyl-1,3,4,6,11,11a-hexahydropyrazino[1,2-b]isoquinolin-2-yl]quinoline-8-carbonitrile]	8.2	> 20
C[C@@H]1CN(c2ccc(C#N)c3ncccc23)C[C@@H]2Cc3cc(N4C[C@@H]5CNCCN5C4=O)ccc3CN21 (single isomer, unassigned) [Example 17A]	> 10	> 20
C[C@@H]1CN(c2ccc(C#N)c3ncccc23)C[C@@H]2Cc3cc(N[C@@H]4CNC[C@@H]4F)ccc3CN21 [Example 6, 5-[(4R,11aS)-4-methyl-9-[[(3R,4S)-4-fluoropyrrolidin-3-yl]amino]-1,3,4,6,11,11a-hexahydropyrazino[1,2-b]isoquinolin-2-yl]quinoline-8-carbonitrile]	> 10	> 20
